Test results published in ChEMBL document CHEMBL4382249, “1-Arylsulfonyl indoline-benzamides as a new antitubulin agents, with inhibition of histone deacetylase” (Eur J Med Chem, 2019).

Assays:
[1] = target: Histone deacetylase 3 (Homo sapiens, UniProt O15379)
[2] = Growth inhibition of human KB-VIN10 cells after 48 hrs by SRB assay; format: functional; details: KB-VIN10, 48 h
[3] = tested on: BJAB; assay: Growth inhibition of human BJAB cells assessed as cell viability at 10 nM after 48 hrs by MTT assay (reference value: 100%)
[4] = target: T1, Histone deacetylase 8 (Homo sapiens, UniProt Q9BY41)
T1 sequence (Q9BY41 whole entry): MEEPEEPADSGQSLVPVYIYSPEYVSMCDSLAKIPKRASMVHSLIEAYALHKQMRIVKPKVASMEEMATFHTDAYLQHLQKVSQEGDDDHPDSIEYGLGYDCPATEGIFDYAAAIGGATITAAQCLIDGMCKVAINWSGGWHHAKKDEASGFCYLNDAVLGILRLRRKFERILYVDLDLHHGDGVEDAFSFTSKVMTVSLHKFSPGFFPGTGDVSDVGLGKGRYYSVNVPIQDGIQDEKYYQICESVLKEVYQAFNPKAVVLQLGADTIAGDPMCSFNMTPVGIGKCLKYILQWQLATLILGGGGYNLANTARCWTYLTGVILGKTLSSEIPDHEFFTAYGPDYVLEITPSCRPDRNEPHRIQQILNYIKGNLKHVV

[5] = Growth inhibition of human KB-7d cells after 48 hrs by SRB assay; format: functional; details: KB7D
[6] = tested on: BJAB; assay: Growth inhibition of human BJAB cells after 48 hrs by MTT assay
[7] = tested on: BJAB; assay: Growth inhibition of human BJAB cells assessed as cell viability at 5 nM after 48 hrs by MTT assay (reference value: 100%)
[8] = tested on: KB; assay: Growth inhibition of human KB cells after 48 hrs by SRB assay; format: functional, cell-based
[9] = target: Tubulin (Bos taurus) (UniProt Q6B856+Q862L2+Q862F3); details: at 5 µM
[10] = target: Histone deacetylase 4 (Homo sapiens, UniProt P56524); assay: Inhibition of human HDAC4 using fluorogenic p53-derived peptide RHKK(Ac) as substrate by fluorescence assay
Chain of Histone deacetylase 4 (P56524 whole entry): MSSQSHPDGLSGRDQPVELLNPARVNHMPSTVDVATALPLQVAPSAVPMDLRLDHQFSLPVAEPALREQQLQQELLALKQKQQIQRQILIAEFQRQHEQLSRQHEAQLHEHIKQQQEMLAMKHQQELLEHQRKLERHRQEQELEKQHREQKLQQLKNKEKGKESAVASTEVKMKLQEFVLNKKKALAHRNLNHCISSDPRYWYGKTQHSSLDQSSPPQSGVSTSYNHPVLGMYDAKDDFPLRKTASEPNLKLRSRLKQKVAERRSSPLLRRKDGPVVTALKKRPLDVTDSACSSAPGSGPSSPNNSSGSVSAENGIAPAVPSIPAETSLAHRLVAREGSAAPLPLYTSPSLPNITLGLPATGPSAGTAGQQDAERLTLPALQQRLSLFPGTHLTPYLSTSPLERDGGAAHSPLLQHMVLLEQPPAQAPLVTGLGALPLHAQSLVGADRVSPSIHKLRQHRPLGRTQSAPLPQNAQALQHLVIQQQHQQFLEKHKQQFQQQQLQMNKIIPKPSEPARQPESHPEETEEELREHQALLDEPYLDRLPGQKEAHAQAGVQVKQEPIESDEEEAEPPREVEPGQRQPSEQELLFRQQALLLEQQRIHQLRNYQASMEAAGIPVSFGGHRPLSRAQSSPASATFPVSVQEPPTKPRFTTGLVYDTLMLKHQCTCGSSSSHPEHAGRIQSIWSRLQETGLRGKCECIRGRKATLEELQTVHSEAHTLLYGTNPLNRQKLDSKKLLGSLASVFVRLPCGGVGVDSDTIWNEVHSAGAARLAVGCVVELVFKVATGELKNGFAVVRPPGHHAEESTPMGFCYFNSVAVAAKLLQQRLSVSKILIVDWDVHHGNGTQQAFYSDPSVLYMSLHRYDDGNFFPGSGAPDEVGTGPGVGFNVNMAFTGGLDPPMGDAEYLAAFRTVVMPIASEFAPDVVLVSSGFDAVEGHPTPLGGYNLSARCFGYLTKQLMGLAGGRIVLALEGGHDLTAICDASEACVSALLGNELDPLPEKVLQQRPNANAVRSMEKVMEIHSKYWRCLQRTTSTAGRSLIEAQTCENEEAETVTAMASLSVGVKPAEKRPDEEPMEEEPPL

[11] = tested on: A549; assay: Antitumor activity against human A549 cells xenografted in Balb/c nude mouse assessed as tumor growth inhibition at 50 mg/kg, ip daily measured up to 18 days relative to control; format: functional; details: 432 h, read-out: TGI
[12] = target: T2, Histone deacetylase 7 (Homo sapiens, UniProt Q8WUI4); assay: Inhibition of human HDAC7 using fluorogenic p53 (379-382) peptide RHKK(Ac) as substrate by fluorescence assay
T2 sequence (Q8WUI4 whole entry): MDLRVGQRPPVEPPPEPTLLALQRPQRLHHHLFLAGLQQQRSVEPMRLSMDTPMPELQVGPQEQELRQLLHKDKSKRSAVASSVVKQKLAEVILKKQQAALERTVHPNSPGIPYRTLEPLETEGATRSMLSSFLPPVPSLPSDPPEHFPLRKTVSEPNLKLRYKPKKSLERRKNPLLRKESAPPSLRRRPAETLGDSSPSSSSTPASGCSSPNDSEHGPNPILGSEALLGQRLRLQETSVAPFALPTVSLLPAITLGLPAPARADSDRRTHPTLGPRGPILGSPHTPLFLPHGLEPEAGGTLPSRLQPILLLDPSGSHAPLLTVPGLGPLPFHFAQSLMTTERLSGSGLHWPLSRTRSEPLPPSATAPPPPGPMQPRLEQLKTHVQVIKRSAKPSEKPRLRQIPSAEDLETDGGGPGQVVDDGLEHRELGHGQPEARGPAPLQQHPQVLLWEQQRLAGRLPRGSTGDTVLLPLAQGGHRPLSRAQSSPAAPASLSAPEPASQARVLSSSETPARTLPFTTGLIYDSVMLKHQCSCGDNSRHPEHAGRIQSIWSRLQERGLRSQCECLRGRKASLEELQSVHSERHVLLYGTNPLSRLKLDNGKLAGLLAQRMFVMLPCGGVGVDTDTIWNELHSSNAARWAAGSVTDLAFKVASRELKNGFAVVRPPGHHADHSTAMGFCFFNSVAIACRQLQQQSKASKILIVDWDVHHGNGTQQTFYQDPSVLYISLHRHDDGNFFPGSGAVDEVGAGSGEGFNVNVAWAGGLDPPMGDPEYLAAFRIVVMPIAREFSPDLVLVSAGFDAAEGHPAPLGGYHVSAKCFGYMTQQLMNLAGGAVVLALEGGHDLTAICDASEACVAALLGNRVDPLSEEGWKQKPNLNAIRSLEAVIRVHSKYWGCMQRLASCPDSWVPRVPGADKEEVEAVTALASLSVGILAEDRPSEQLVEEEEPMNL

[13] = target: Tubulin (Bos taurus, UniProt Q6B856+Q862L2+Q862F3)
[14] = tested on: BJAB; assay: Growth inhibition of human BJAB cells assessed as cell viability at 80 nM after 48 hrs by MTT assay (reference value: 100%)

Chain of Histone deacetylase 3 (O15379 whole entry): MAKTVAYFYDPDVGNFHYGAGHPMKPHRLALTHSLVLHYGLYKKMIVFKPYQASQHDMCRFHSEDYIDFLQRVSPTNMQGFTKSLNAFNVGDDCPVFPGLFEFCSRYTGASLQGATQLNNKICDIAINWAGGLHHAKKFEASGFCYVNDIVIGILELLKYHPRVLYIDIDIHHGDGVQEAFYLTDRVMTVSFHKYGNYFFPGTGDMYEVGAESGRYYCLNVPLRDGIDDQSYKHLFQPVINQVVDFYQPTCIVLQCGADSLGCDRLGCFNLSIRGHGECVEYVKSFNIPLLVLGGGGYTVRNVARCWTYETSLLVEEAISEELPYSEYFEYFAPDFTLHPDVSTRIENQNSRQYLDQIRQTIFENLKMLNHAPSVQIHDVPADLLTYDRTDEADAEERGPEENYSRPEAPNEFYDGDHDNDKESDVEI

## COc1ccc(S(=O)(=O)N2CCc3cccc(NCc4ccc(C(=O)Nc5ccccc5N)cc4)c32)cc1
[1]
  IC50: Not Active
[2]
  IC50: 64.7 nM
[3]
  viability at 0.01 µM: 69%
[4]
  IC50: Not Active
[5]
  IC50: 46.6 nM
[6]
  IC50: 40 nM
[7]
  viability at 0.005 µM: 71%
[8]
  IC50: 49 nM
[9]
  inhibition: 85.2%
[10]
  IC50: Not Active
[11]
  inhibition in vivo at 50 mg/kg: 62.9%
[12]
  IC50: Not Active
[13]
  IC50: 1100 nM
[14]
  viability at 0.08 µM: 22%
